Data on two compounds can be found in US20260091020A1, “TREATMENT OF ACUTE CANNABINOID OVERDOSE” (Anebulo Pharmaceuticals, Inc., priority 2022, published 2026).

Holding throughout (format): cell-based
Assay [1] addresses T1, CB1 [CNR1] (Homo sapiens, UniProt P21554). Kind of assay: PathHunter GPCR Biosensor cAMP assay, CNR1 agonist mode. The following applies: Gi cAMP, 20 μM Forskolin. As for the experimental part: (§1) Compounds 2 and 3 were evaluated for activity against CB1 [CNR1] and CB2 [CNR2], both as agonists or as antagonists using the PathHunter GPCR Biosensor (Eurofins Discovery X, Fremont CA). For agonist assays, data was normalized to the maximal and minimal response observed in the presence of control ligand and vehicle. For antagonist assays, data was normalized to the maximal and minimal response observed in the presence of EC80 ligand and vehicle. The following EC80 concentrations were used: CNR1 cAMP: 0.0012 μM CP55940; CNR2 cAMP: 0.0048 μM CP55940. For Gi cAMP assays, the following forskolin concentration was used: CNR1 cAMP: 20 μM Forskolin; CNR2 cAMP: 25 μM Forskolin.

For assay [2], the target named is T1, CB1 [CNR1]. Briefly: PathHunter GPCR Biosensor cAMP assay, CNR1 antagonist mode. The following applies: for pIC50: Gi cAMP, 20 μM Forskolin, EC80 0.0012 μM CP55940; for CB1 vs CB2 selectivity and mode of action (in words): conclusion from Table 7. As for the experimental part:
as §1

Assay [3] concerns the target T2, CB2 [CNR2] (Homo sapiens, UniProt P34972). Briefly: PathHunter GPCR Biosensor cAMP assay, CNR2 agonist mode. The following applies: Gi cAMP, 25 μM Forskolin. As for the experimental part:
as §1

The target in assay [4] is T2, CB2 [CNR2]. Kind of assay: PathHunter GPCR Biosensor cAMP assay, CNR2 antagonist mode. The following applies: Gi cAMP, 25 μM Forskolin; EC80 0.0048 μM CP55940. As for the experimental part:
as §1

pEC50, pIC50: −log10 of the molar value.

T2 sequence (P34972 whole entry): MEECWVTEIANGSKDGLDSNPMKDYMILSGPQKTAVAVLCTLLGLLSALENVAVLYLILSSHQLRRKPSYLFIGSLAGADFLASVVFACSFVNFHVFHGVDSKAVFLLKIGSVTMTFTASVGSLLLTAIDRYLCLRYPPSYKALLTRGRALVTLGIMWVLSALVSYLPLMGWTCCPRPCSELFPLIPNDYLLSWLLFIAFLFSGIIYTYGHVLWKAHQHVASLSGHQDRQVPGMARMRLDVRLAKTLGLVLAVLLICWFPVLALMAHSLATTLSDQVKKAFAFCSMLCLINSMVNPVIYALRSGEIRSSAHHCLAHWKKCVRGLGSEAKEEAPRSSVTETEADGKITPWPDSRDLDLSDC
T1 sequence (P21554 whole entry): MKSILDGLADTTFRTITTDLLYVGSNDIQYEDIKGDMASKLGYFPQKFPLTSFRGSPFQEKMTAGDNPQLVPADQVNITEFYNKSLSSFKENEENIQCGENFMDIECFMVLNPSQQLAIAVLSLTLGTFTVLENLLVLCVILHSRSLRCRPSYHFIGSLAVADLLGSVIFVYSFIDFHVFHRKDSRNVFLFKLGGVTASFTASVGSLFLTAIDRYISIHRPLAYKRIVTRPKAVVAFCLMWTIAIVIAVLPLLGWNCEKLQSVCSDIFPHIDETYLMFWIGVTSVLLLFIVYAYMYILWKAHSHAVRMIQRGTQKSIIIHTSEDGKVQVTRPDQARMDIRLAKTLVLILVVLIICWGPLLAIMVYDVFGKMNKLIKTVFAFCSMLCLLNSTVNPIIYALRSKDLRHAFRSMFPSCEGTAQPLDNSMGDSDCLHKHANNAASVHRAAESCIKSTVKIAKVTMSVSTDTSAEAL

Regarding `CC(C)(CO)NC(=O)N1CC(OC(c2ccc(Cl)cc2)c2ccccc2C(F)(F)F)C1` (stereo not shown) [Compound 2, 3-((4-chlorophenyl)(2-(trifluoromethyl)phenyl)methoxy)-N-(1-hydroxy-2-methylpropan-2-yl)azetidine-1-carboxamide], the pEC50 at CB1 [CNR1] [1] and on CB2 [CNR2] [3] was below 6.00 in each case. In addition, the pIC50 was 7.34 against CB1 [CNR1] [2] and below 6.00 on CB2 [CNR2] [4]. The “CB1 vs CB2 selectivity and mode of action (in words)” value on CB1 [CNR1] [2] was “selective CB1 antagonists”.

With `CC(C)(NC(=O)N1CC(OC(c2ccc(Cl)cc2)c2ccccc2C(F)(F)F)C1)C(=O)O` (stereo not shown) [Compound 3, 2-(3-((4-chlorophenyl)(2-(trifluoromethyl)phenyl)methoxy)azetidine-1-carboxamido)-2-methylpropanoic acid], the pEC50 at CB1 [CNR1] [1] and at CB2 [CNR2] [3] was below 6.00 throughout. The figures for the pIC50 against CB1 [CNR1] [2] and at CB2 [CNR2] [4] were 6.42 and below 6.00, respectively. Besides, the “CB1 vs CB2 selectivity and mode of action (in words)” value at CB1 [CNR1] [2] is reported as “selective CB1 antagonists”.

Broadly, the pEC50 is the negative decadic logarithm of the EC50, by convention in mol/L. By pIC50 is commonly meant the negative decadic logarithm of the IC50, by convention in mol/L. A low value points to a high IC50.
